Measured values as given in BindingDB's records for doi:10.1007/s00210-003-0860-y (UniversitÄT WÜRzburg, 2004).
Structures can show the parent of a compound that is named as a salt.

Columns and labels:
[1] = target: Beta-3 adrenergic receptor (Homo sapiens, UniProt P13945)
[2] = target: Beta-2 adrenergic receptor (Homo sapiens, UniProt P07550)
Beta-2 adrenergic receptor, sequence (P07550 whole entry): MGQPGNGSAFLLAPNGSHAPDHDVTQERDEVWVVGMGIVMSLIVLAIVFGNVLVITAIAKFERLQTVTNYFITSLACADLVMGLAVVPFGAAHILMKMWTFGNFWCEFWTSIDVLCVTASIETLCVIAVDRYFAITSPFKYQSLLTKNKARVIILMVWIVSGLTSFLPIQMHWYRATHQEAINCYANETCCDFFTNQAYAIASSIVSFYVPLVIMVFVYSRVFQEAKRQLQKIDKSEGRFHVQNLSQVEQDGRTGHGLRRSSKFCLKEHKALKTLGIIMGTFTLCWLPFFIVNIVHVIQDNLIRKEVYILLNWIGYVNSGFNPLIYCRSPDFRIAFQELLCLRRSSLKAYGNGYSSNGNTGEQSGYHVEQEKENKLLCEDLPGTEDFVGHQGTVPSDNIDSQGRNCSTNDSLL

Beta-3 adrenergic receptor, sequence (P13945 whole entry): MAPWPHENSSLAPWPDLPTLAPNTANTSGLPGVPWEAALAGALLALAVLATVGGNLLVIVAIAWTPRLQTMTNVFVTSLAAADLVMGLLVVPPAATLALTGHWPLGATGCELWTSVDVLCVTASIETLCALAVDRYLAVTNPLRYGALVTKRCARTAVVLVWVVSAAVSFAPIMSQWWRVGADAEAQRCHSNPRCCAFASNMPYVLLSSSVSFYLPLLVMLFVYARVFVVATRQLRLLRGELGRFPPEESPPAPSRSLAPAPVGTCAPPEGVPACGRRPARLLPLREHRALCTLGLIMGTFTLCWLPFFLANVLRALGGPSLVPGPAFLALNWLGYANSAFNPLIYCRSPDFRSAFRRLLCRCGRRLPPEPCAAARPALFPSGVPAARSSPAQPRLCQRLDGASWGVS

Row | SMILES | Ki [1] [nM] | Ki [2] [nM]
1 | CC(C)(C)NCC(O)c1cc(O)cc(O)c1 (racemic) [Terbutaline,(+/-)] | > 10000 | –
2 | CC(C)(C)NCC(O)COc1cccc2[nH]c(=O)[nH]c12 (centres undefined) [4-[3-(tert-butylamino)-2-hydroxypropoxy]-2,3-dihydro-1H-1,3-benzodiazol-2-one hydrochloride] | 77.1 | –
3 | CC(Cc1ccc(OCC(=O)O)cc1)NCC(O)c1cccc(Cl)c1 (centres undefined) [CAS_2437] | – | 9170
4 | CCc1ccccc1OC[C@@H](O)CN[C@H]1CCCc2ccccc21 [CAS_174689-39-5] | 122 | 61.9
5 | CNCC(O)c1ccc(O)c(O)c1 (centres undefined) [EPINEPHRINE] | > 10000 | –
6 | CC(C)(C)NCC(O)c1cc(Br)no1 (centres undefined) [NSC_71149] | 3990 | 1290
7 | OCc1cc(C(O)CNCCCCCCOCCCCc2ccccc2)ccc1O (centres undefined) [salmeterol xinafoate] | 7180 | –
